Legend:
[1] = Basic taste quality sensory evaluation by trained panelists, spitting test, against 6% sucrose control (Example 1); format: in vivo, human
Experimental: In each evaluation item, the rating on a scale of −3 point to 3 point was performed, with the case where there is no difference from the control solution being 0. Quicker in sweetness onset, higher sweetness intensity, shorter lingering sweet aftertaste, lower bitterness intensity, and shorter lingering bitter aftertaste compared to the control were rated near 3 points. Slower in sweetness onset, lower sweetness intensity, longer lingering sweet aftertaste, higher bitterness intensity, and longer lingering bitter aftertaste compared to the control were rated near −3 points. That is, the closer to 0 point, the closer to the control. The evaluation was carried out by those (4 persons) who received sensory trainings as panelists by spitting test. The amount of a sweet substance contained in each sample solution was adjusted to be equal to the control solution on the calculation. […] The energy (kcal/100 ml) was calculated from the amount of the sweetener added.

[2] = Degree of sweetness relative to sucrose
Excerpt: The “sweetness intensity” means an intensity of sweetness of a substance. […] A numerical value obtained by multiplying the degree of sweetness by a concentration Brix value of glucose is the sweetness intensity of glucose in terms of sucrose. Thus, when a concentration of glucose in terms of sucrose is Brix 1.5, the sweetness intensity of glucose is 0.65×1.5=0.975. The sweetness intensity of a sweetener in terms of sucrose can be calculated from a degree of sweetness shown in the following table or a value of a known degree of sweetness.
For example, when the sweetness intensity of sucrose per unit concentration Brix 1 is defined as a degree of sweetness of 1, a degree of sweetness of rebaudioside D is about 200 to 250 (median value 225), a degree of sweetness of rebaudioside M is about 200 to 260 (median value 230), a degree of sweetness of rebaudioside B is about 325, a degree of sweetness of rebaudioside A is about 200 to 300 (median value 250), a degree of sweetness of rebaudioside N is about 200 to 250 (median value 225), a degree of sweetness of rebaudioside O is about 200 to 250 (median value 225), a degree of sweetness of rebaudioside E is about 70 to 80 (median value 75), a degree of sweetness of a Luo han guo extract (containing 40% of Mog V) is about 110 to 150 (median value 130), a degree of sweetness of mogroside V is about 240 to 300 (median value 270), and a degree of sweetness of thaumatin is about 2,000, and a degree of sweetness of brazzein is about 500 to 2,000 (median value 1,250). The numerical value obtained by multiplying these degrees of sweetness by a concentration (w/v % (considered to be the same as w/w % in the case of a beverage)) of the high-intensity sweetener in a fruit juice beverage is a sweetness intensity of the high-intensity sweetener. The relative ratio in degrees of sweetness of various sweeteners to the degree of sweetness of 1 of sucrose can be determined from a known sugar sweetness conversion table, and the like. In the present description, when a degree of sweetness is shown in a numerical value range, the median value may be used. However, a sweetener having different values in a degree of sweetness by literatures, a relative ratio in a degree of sweetness to the degree of sweetness of 1 of sucrose can be defined by a sensory test. Examples of such a sensory test include a method in which samples were prepared by adding sucrose having a sweetness intensity of Brix 3.0 to 5.0 in 0.5 increments to pure water, and of which a sucrose-added sample having a sweetness intensity equal to an aqueous solution of a sweetener in a predetermined concentration is selected.
Additionally, for a sweetener with a variable degree of sweetness as a sweetness intensity increases, degrees of sweetness in different concentrations are actually measured and plotted whereby a degree of sweetness in a predetermined concentration may be calculated from the obtained approximate curve.

[3] = scale −3 to 3, 0 = no difference from 6% sucrose control, D-allulose 8.57 w/v %, D-arabinose 10 w/v % in pure water, 4 panelists

SMILES: O=C[C@@H](O)[C@H](O)[C@H](O)CO [D-Arabinose]
- taste quality compared with aqueous solutions containing D-allulose ([1]; aqueous solutions, Example 1): lower bitterness intensity and shorter lingering bitter aftertaste with the taste quality closer to sucrose
- Bitterness intensity [1, 3]: 0 point
- Lingering bitter aftertaste [1, 3]: −0.125 point
- Lingering sweet aftertaste [1, 3]: 0 point
- Quickness in sweetness onset [1, 3]: 0.250 point
- Sweetness intensity [1, 3]: 0 point
- degree of sweetness, times as much as that of sucrose ([2]; according to the confirmation by the present inventors): about 0.6 times
- degree of sweetness, times as much as that of sucrose ([2]; value used to design the sample solutions): 0.6 times
- sweetness intensity, times as much as that of sucrose ([2]; value used to design the sample solutions of Example 5): 0.6 times
